Source: ChEMBL document CHEMBL1149390, “Potent CYP19 (aromatase) 1-[(benzofuran-2-yl)(phenylmethyl)pyridine, -imidazole, and -triazole inhibitors: synthesis and biological evaluation” (J Med Chem, 2006)
Activity calls are given as the source filed them. No cut-off for these calls is given here.

Assays:
Hepatocyte [1] = assay: cells; format: functional; conditions: Rattus norvegicus, 24 h, read-out: LC50 (the source's name)
Hepatocyte [2] = conditions: Rattus norvegicus

With `COc1ccc(C(O)(c2cccnc2)c2cc3ccc(OC)cc3o2)cc1` (stereo not drawn) the CC50 (Hepatocyte [1]) was 100 µM and the LC50 (Hepatocyte [2]) was “inactive”.
For `COc1ccc2cc(C(c3ccc(Cl)cc3)n3cncn3)oc2c1` (stereo not drawn), the CC50 (Hepatocyte [1]) was 50 µM and the LC50 (Hepatocyte [2]) was “inactive”.
For `COc1ccc2cc(C(c3ccc(F)cc3)n3cncn3)oc2c1` (stereo not drawn), the CC50 (Hepatocyte [1]) was 100 µM and the LC50 (Hepatocyte [2]) was “inactive”.
In the case of `COc1ccc(C(c2cc3ccc(OC)cc3o2)n2cncn2)cc1` (stereo not drawn), the CC50 (Hepatocyte [1]) is reported as 90 µM and the LC50 (Hepatocyte [2]) is reported as “inactive”.
`COc1ccc(C(c2cc3ccc(OC)cc3o2)n2ccnc2)cc1` (stereo not drawn) was tested, and the CC50 (Hepatocyte [1]) was 50 µM and the LC50 (Hepatocyte [2]) was “inactive”.
With `COc1ccc2cc(C(O)(c3ccc(F)cc3)c3cccnc3)oc2c1` (stereo not drawn) the CC50 (Hepatocyte [1]) was greater than 100 µM and the LC50 (Hepatocyte [2]) was “inactive”.
`CC(C)(C#N)c1cc(Cn2cncn2)cc(C(C)(C)C#N)c1` [ANASTROZOLE] was tested, and the CC50 (Hepatocyte [1]) was greater than 200 µM.
